Test results reported in US9113629B2, “4-amino-6-(4-substituted-phenyl)-picolinates and 6-amino-2-(4-substituted-phenyl)-pyrimidine-4-carboxylates and their use as herbicides” (DOW AGROSCIENCES LLC, priority 2013, dated 2015).
Read-outs that look alike come from different tables or passages of the source.

Columns and labels:
[1] = tested on: Key Broadleaf Weed and Crop Species; experiment: Post-emergent Test II herbicidal activity (Table 5); assay type: in vivo; details: post-emergence, 336 h, post-emergent, 14 days after application; for pest or weed control at 70 g/ha: application rate 70 g ai/ha; for pest or weed control at 140 g/ha: application rate 140 g ai/ha
Outline: (§1)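 Compounds, dissolved in 97:3 acetone/DMSO and diluted into an aqueous carrier containing crop oil concentrate and Triton X-155, are applied over the top of young plants at 187 L/ha. Injury is scored visually at 14 d, 0% meaning no effect and 100% complete kill.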

[2] = tested on: Key Grass and Sedge Weeds as well as Grass Crops; experiment: Post-emergent Test II herbicidal activity (Table 6); assay type: in vivo; details: post-emergence, 336 h; for pest or weed control at 70 g/ha: application rate 70 g ai/ha; for pest or weed control at 140 g/ha: application rate 140 g ai/ha
Outline: as §1

[3] = ABUTH: velvetleaf (Abutilon theophrasti), read-out: Visual Growth Reduction (%) 14 Days After Application, ABUTH
[4] = AMARE: redroot pigweed (Amaranthus retroflexus), read-out: Visual Growth Reduction (%) 14 Days After Application, AMARE
[5] = BRSNN: oilseed-rape, canola (Brassica napus), read-out: Visual Growth Reduction (%) 14 Days After Application, BRSNN
[6] = CHEAL: lambsquarters (Chenopodium album), read-out: Visual Growth Reduction (%) 14 Days After Application, CHEAL
[7] = EPHHL: wild poinsettia (Euphorbia heterophylla), read-out: Visual Growth Reduction (%) 14 Days After Application, EPHHL
[8] = HELAN: sunflower (Helianthus annuus), read-out: Visual Growth Reduction (%) 14 Days After Application, HELAN
[9] = VIOTR: wild pansy (Viola tricolor), read-out: Visual Growth Reduction (%) 14 Days After Application, VIOTR
[10] = CYPES: yellow nutsedge (Cyperus esculentus), read-out: Visual Growth Reduction (%) 14 Days After Application, CYPES
[11] = DIGSA: crabgrass (Digitaria sanguinalis), read-out: Visual Growth Reduction (%) 14 Days After Application, DIGSA
[12] = ECHCG: barnyardgrass (Echinochloa crus-galli), read-out: Visual Growth Reduction (%) 14 Days After Application, ECHCG
[13] = ORYSA: rice (Oryza sativa), read-out: Visual Growth Reduction (%) 14 Days After Application, ORYSA
[14] = SETFA: giant foxtail (Setaria faberi), read-out: Visual Growth Reduction (%) 14 Days After Application, SETFA
[15] = SORVU: grain sorghum (Sorghum vulgare), read-out: Visual Growth Reduction (%) 14 Days After Application, SORVU
[16] = TRZSS (wheat, Triticum aestivum), read-out: Visual Growth Reduction (%) 14 Days After Application, TRZSS
[17] = ZEAMX: maize, corn (Zea mays), read-out: Visual Growth Reduction (%) 14 Days After Application, ZEAMX

Structure (SMILES) | pest or weed control at 70 g/ha [1, 3] [%] | pest or weed control at 140 g/ha [1, 3] [%] | pest or weed control at 70 g/ha [1, 4] [%] | pest or weed control at 140 g/ha [1, 4] [%] | pest or weed control at 70 g/ha [1, 5] [%] | pest or weed control at 140 g/ha [1, 5] [%] | pest or weed control at 70 g/ha [1, 6] [%] | pest or weed control at 140 g/ha [1, 6] [%] | pest or weed control at 70 g/ha [1, 7] [%] | pest or weed control at 140 g/ha [1, 7] [%] | pest or weed control at 70 g/ha [1, 8] [%] | pest or weed control at 140 g/ha [1, 8] [%] | pest or weed control at 70 g/ha [1, 9] [%] | pest or weed control at 140 g/ha [1, 9] [%] | melting point [°C] | pest or weed control at 70 g/ha [2, 10] [%] | pest or weed control at 140 g/ha [2, 10] [%] | pest or weed control at 70 g/ha [2, 11] [%] | pest or weed control at 140 g/ha [2, 11] [%] | pest or weed control at 70 g/ha [2, 12] [%] | other results
Nc1c(F)c(-c2cc(F)c(C(F)F)cc2F)nc(C(=O)O)c1Cl [Compound 178] | 75 to 84 | 75 to 84 | 95 to 100 | 95 to 100 | 95 to 100 | 95 to 100 | 95 to 100 | 95 to 100 | 85 to 94 | 95 to 100 | 95 to 100 | 95 to 100 | 30 to 44 | 45 to 59 | 86.1 to 88.4 | 85 to 94 | 85 to 94 | 0 to 29 | 45 to 59 | 60 to 74 | pest or weed control at 140 g/ha [2, 12]: 85 to 94%; pest or weed control at 70 g/ha [2, 13]: 0 to 29%; pest or weed control at 140 g/ha [2, 13]: 0 to 29%; pest or weed control at 70 g/ha [2, 14]: 85 to 94%; pest or weed control at 140 g/ha [2, 14]: 85 to 94%; pest or weed control at 70 g/ha [2, 15]: 45 to 59%; pest or weed control at 140 g/ha [2, 15]: 60 to 74%; pest or weed control at 70 g/ha [2, 16]: 30 to 44%; pest or weed control at 140 g/ha [2, 16]: 45 to 59%; pest or weed control at 70 g/ha [2, 17]: 0 to 29%; pest or weed control at 140 g/ha [2, 17]: 30 to 44%
COC(=O)c1nc(-c2cc(F)c(C)cc2F)c(F)c(N)c1Cl [Compound 184] | 95 to 100 | 95 to 100 | 85 to 94 | 95 to 100 | 85 to 94 | 95 to 100 | 85 to 94 | 95 to 100 | 85 to 94 | 95 to 100 | 95 to 100 | 95 to 100 | 0 to 29 | 0 to 29 | 116.5 to 118.8 | 0 to 29 | 0 to 29 | 0 to 29 | 0 to 29 | 45 to 59 | pest or weed control at 140 g/ha [2, 12]: 60 to 74%; pest or weed control at 70 g/ha [2, 13]: 0 to 29%; pest or weed control at 140 g/ha [2, 13]: 0 to 29%; pest or weed control at 70 g/ha [2, 14]: 0 to 29%; pest or weed control at 140 g/ha [2, 14]: 0 to 29%; pest or weed control at 70 g/ha [2, 15]: 0 to 29%; pest or weed control at 140 g/ha [2, 15]: 30 to 44%; pest or weed control at 70 g/ha [2, 16]: 0 to 29%; pest or weed control at 140 g/ha [2, 16]: 0 to 29%; pest or weed control at 70 g/ha [2, 17]: 0 to 29%; pest or weed control at 140 g/ha [2, 17]: 0 to 29%
Cc1cc(F)c(-c2cc(N)c(Cl)c(C(=O)O)n2)cc1F [Compound 188] | 75 to 84 | 95 to 100 | 95 to 100 | 95 to 100 | 60 to 74 | 60 to 74 | 95 to 100 | 85 to 94 | 95 to 100 | 95 to 100 | 75 to 84 | 75 to 84 | 0 to 29 | 0 to 29 | 172.9 to 175 | 0 to 29 | 0 to 29 | 0 to 29 | 0 to 29 | 75 to 84 | pest or weed control at 140 g/ha [2, 12]: 60 to 74%; pest or weed control at 70 g/ha [2, 13]: 0 to 29%; pest or weed control at 140 g/ha [2, 13]: 0 to 29%; pest or weed control at 70 g/ha [2, 14]: 0 to 29%; pest or weed control at 140 g/ha [2, 14]: 30 to 44%; pest or weed control at 70 g/ha [2, 15]: 45 to 59%; pest or weed control at 140 g/ha [2, 15]: 0 to 29%; pest or weed control at 70 g/ha [2, 16]: 0 to 29%; pest or weed control at 140 g/ha [2, 16]: 0 to 29%; pest or weed control at 70 g/ha [2, 17]: 0 to 29%; pest or weed control at 140 g/ha [2, 17]: 0 to 29%
